Measurements: ChEMBL document CHEMBL5104211, “Design and synthesis of bile acid derivatives and their activity against colon cancer” (RSC Med Chem, 2022)
Active and inactive are the calls of the source. No cut-off for these calls is given here.

Experiments:
[1] = test system: HCT-116; experiment: Inhibition of cell migration in human HCT-116 cells at 20 micromol/L and measured after 24 hrs by crystal violet staining based transwell assay; type: functional; details: for inhibition at 20 µM: HCT-116, 24 h, dose 20 µmol/L
[2] = test system: HCT-116; experiment: Induction of apoptosis in human HCT-116 cells assessed as apoptotic body formation at 30 micromol/L incubated for 48 hrs by Giemsa staining based fluorescence microscopy; type: functional, cell-based; details: dose 30.0 µmol/L
[3] = test system: HCT-116; experiment: Induction of apoptosis in human HCT-116 cells assessed as contraction of cell volume at 30 micromol/L incubated for 48 hrs by Giemsa staining based fluorescence microscopy; type: functional; details: dose 30.0 µmol/L
[4] = test system: Huh-7; experiment: Anticancer activity against human Huh-7 cells assessed as inhibition of cell proliferation by MTT assay; type: functional, cell-based
[5] = test system: HT-29; experiment: Anticancer activity against human HT-29 cells assessed as inhibition of cell proliferation by MTT assay; type: functional, cell-based
[6] = test system: HCT-116; experiment: Induction of cell cycle arrest in human HCT-116 cells assessed as accumulation G2/M phase at 25 micromol/L and measured after 48 hrs by propidium iodide staining based flow cytometry analysis (Rvb= 11%); type: functional; details: dose 25 µmol/L, at 25 µM
[7] = test system: HCT-116; experiment: Anticancer activity against human HCT-116 cells assessed as inhibition of cell proliferation by MTT assay; type: functional, cell-based
[8] = test system: HCT-116; experiment: Anticancer activity in human HCT-116 cells assessed as downregulation of phosphorylated STAT3 level at 30 micromol/L incubated for 48 hrs by Western blot analysis; type: functional, cell-based; details: dose 30.0 µmol/L
[9] = test system: SK-HEP1; experiment: Anticancer activity against human SK-HEP1 cells assessed as inhibition of cell proliferation by MTT assay; type: functional, cell-based
[10] = Cytotoxicity against human WI-38 cells assessed as inhibition of cell proliferation by MTT assay; type: toxicity, cell-based
[11] = test system: A549; experiment: Anticancer activity against human A549 cells assessed as inhibition of cell proliferation by MTT assay; type: functional, cell-based
[12] = test system: HCT-116; experiment: Anticancer activity against human HCT-116 cells assessed as decrease in number of colonies at 25 micromol/L and measured after 48 hrs by crystal violet dye based colony formation assay; type: functional, cell-based; details: dose 25.0 µmol/L
[13] = test system: RKO; experiment: Anticancer activity against human RKO cells assessed as inhibition of cell proliferation by MTT assay; type: functional, cell-based
[14] = test system: HCT-116; experiment: Induction of apoptosis in human HCT-116 cells assessed as unclear cell rupture edges at 30 micromol/L incubated for 48 hrs by Giemsa staining based fluorescence microscopy; type: functional; details: dose 30.0 µmol/L
[15] = test system: HCT-116; experiment: Induction of mitochondrial membrane potential loss in human HCT-116 cells and measured after 48 hrs by TRME staining based flow cytometric analysis (reference value: 97.52%); type: functional
[16] = test system: HCT-116; experiment: […] activity in human HCT-116 cells assessed as upregulation of cleaved caspase-3 level at 30 micromol/L incubated for 48 hrs by Western blot analysis; type: functional, cell-based; details: dose 30.0 µmol/L
[17] = test system: HCT-116; experiment: Induction of apoptosis in human HCT-116 cells assessed as retraction of the cytoplasm at 30 micromol/L incubated for 48 hrs by Giemsa staining based fluorescence microscopy; type: functional, cell-based; details: dose 30.0 µmol/L
[18] = test system: SW480; experiment: Anticancer activity against human SW480 cells assessed as inhibition of cell proliferation by MTT assay; type: functional, cell-based
[19] = test system: HCT-116; experiment: Anticancer activity against human HCT-116 cells assessed as inhibition of cell proliferation at 5 to 50 micromol/L incubated for 24 hrs by MTT assay; type: functional, cell-based; details: dose 5-50 µmol/L, DDE = dose-dependent effect
[20] = test system: HCT-116; experiment: Induction of apoptosis in human HCT-116 cells assessed as necrotic cells at 30 micromol/L incubated for 48 hrs by annexin V-FITC and propidium iodide staining based flow cytometry analysis (reference value: 0.88%); type: functional; details: dose 30 µmol/L, at 30 µM
[21] = test system: MGC-803; experiment: Anticancer activity against human MGC-803 cells assessed as inhibition of cell proliferation by MTT assay; type: functional, cell-based
[22] = test system: HCT-116; experiment: Induction of ROS generation in human HCT-116 cells assessed as increase in intracellular ROS level incubated for 48 hrs by DCFH-DA staining based flow cytometric analysis (Rvb=73.65%); type: functional
[23] = test system: HCT-116; experiment: Induction of apoptosis in human HCT-116 cells assessed as viable cells at 30 micromol/L incubated for 48 hrs by annexin V-FITC and propidium iodide staining based flow cytometry analysis (reference value: 89.29%); type: functional; details: HCT-116, 48 h, dose 30 µmol/L, read-out: Activity
[24] = test system: HCT-116; experiment: Inhibition of cell invasion in human HCT-116 cells at 20 micromol/L and measured after 24 hrs by crystal violet staining based transwell assay; type: functional; details: HCT-116, 24 h, dose 20 µmol/L
[25] = test system: HCT-116; experiment: Anticancer activity against human HCT-116 cells assessed as inhibition of cell proliferation at 20 to 40 micromol/L incubated for 24 to 72 hrs by MTT assay; type: functional, cell-based; details: dose 20-40 µmol/L, time 24-72 hrs, TDE = time-dependent effect
[26] = test system: HCT-116; experiment: […] activity in human HCT-116 cells assessed as downregulation of Bcl-2 level at 30 micromol/L incubated for 48 hrs by Western blot analysis; type: functional, cell-based; details: dose 30.0 µmol/L
[27] = test system: HCT-116; experiment: Anticancer activity against human HCT-116 cells assessed as inhibition of cell proliferation at 25 micromol/L incubated for 24 hrs by MTT assay; type: functional; details: HCT-116, 24 h, dose 25 µmol/L
[28] = test system: HCT-116; experiment: Induction of apoptosis in human HCT-116 cells assessed as late apoptotic cells at 30 micromol/L incubated for 48 hrs by annexin V-FITC and propidium iodide staining based flow cytometry analysis (reference value: 7.13%); type: functional; details: dose 30 µmol/L, at 30 µM
[29] = test system: HCT-116; experiment: Induction of apoptosis in human HCT-116 cells assessed as early apoptotic cells at 30 micromol/L incubated for 48 hrs by annexin V-FITC and propidium iodide staining based flow cytometry analysis (reference value: 2.69%); type: functional; details: dose 30 µmol/L, at 30 µM
[30] = test system: HCT-116; experiment: Induction of apoptosis in human HCT-116 cells assessed as retraction of the nucleus at 30 micromol/L incubated for 48 hrs by Giemsa staining based fluorescence microscopy; type: functional, cell-based; details: dose 30.0 µmol/L
[31] = test system: LoVo; experiment: Anticancer activity against human LoVo cells assessed as inhibition of cell proliferation by MTT assay; type: functional, cell-based
[32] = test system: HCT-116; experiment: Anticancer activity against human HCT-116 cells assessed as inhibition of cell proliferation at 30 micromol/L incubated for 24 hrs by MTT assay; type: functional; details: HCT-116, 24 h, dose 30 µmol/L
[33] = test system: HCT-116; experiment: Anticancer activity against human HCT-116 cells assessed as decrease in size of colonies at 25 micromol/L and measured after 48 hrs by crystal violet dye based colony formation assay; type: functional, cell-based; details: dose 25.0 µmol/L
[34] = test system: RAW264.7; experiment: Anti-inflammatory activity against mouse RAW264.7 cells assessed as inhibition of LPS-induced NO production incubated for 24 hrs in presence of LPS by Griess reagent-based assay; type: functional, cell-based; details: RAW264.7, 24 h
[35] = test system: HCT-116; experiment: Anticancer activity against human HCT-116 cells assessed as inhibition of cell proliferation at 20 micromol/L incubated for 24 hrs by MTT assay; type: functional; details: HCT-116, 24 h, dose 20 µmol/L
[36] = test system: HCT-116; experiment: Induction of apoptosis in human HCT-116 cells assessed as increase in number of apoptotic cells at 30 micromol/L incubated for 48 hrs by DAPI staining based fluorescence microscopy; type: functional, cell-based; details: dose 30.0 µmol/L
[37] = test system: HCT-116; experiment: Anticancer activity against human HCT-116 cells assessed as inhibition of cell proliferation at 40 micromol/L incubated for 24 hrs by MTT assay; type: functional; details: HCT-116, 24 h, dose 40 µmol/L
[38] = test system: RAW264.7; experiment: Anti-inflammatory activity against mouse RAW264.7 cells assessed as downregulation of LPS-induced TNF-alpha level at 10 to 25 micromol/L incubated for 24 hrs in presence of LPS by ELISA; type: functional, cell-based; details: dose 10-25 µmol/L
[39] = test system: RAW264.7; experiment: Anti-inflammatory activity against mouse RAW264.7 cells assessed as inhibition of LPS-induced NO production at 10 micromol/L incubated for 24 hrs in presence of LPS by Griess reagent-based assay; type: functional; details: RAW264.7, 24 h, dose 10 µmol/L
[40] = test system: RAW264.7; experiment: Anti-inflammatory activity against mouse RAW264.7 cells assessed as inhibition of LPS-induced NO production at 25 micromol/L incubated for 24 hrs in presence of LPS by Griess reagent-based assay; type: functional; details: RAW264.7, 24 h, dose 25 µmol/L

Row | SMILES | Activity [2] | Activity [3] | IC50 [4] [µM] | IC50 [5] [µM] | Activity [6] [%] | IC50 [7] [µM] | Activity [8] | IC50 [9] [µM] | IC50 [10] [µM] | IC50 [11] [µM] | Activity [12] | IC50 [13] [µM] | Activity [14] | Activity [15] [%] | Activity [17] | IC50 [18] [µM] | inhibition [19] | Activity [20] [%] | IC50 [21] [µM] | IC50 [31] [µM] | also measured
1 | COC(=O)[C@H](CCSC)NC(=O)CC[C@@H](C)[C@H]1CC[C@H]2[C@@H]3[C@H](O)C[C@@H]4C[C@H](O)CC[C@]4(C)[C@H]3CC[C@]12C | Active | Active | 68 | 27.3 | 72.91 | 27.4 | Active | 38.6 | > 500 | 79.8 | Active | 27.3 | Active | 79.54 | Active | 23.6 | Dde | 0.71 | 31.5 | 22.8 | inhibition ([1]; dose 20.0 µmol/L): Active; Activity [16]: Active; Activity [22]: 86.51%; viability at 30 µM [23]: 43.1%; inhibition at 20 µM [24]: 50%; inhibition [25]: Tde; Activity [26]: Active; inhibition at 25 µM [27]: 30%; Activity [28]: 52.35%; Activity [29]: 3.86%; Activity [30]: Active; inhibition at 30 µM [32]: 70%; Activity [33]: Active
2 | Cc1ccc(COC(=O)CC[C@@H](C)[C@H]2CC[C@H]3[C@@H]4[C@H](O)C[C@@H]5C[C@H](O)CC[C@]5(C)[C@H]4C[C@H](O)[C@]23C)cc1 | Active | Active | 51.6 | 22.7 | 90.66 | 21.3 | Active | 60.2 | > 500 | 40.5 | Active | 27.6 | Active | 51.59 | Active | 23.6 | Dde | 0.81 | 21.9 | 18.7 | inhibition at 20 µM [1]: 80%; IC50 [34]: 20.6 µM; inhibition at 20 µM [35]: < 40%; Activity [22]: 95.87%; viability at 30 µM [23]: 25.3%; Activity [36]: Active; inhibition at 20 µM [24]: 80%; inhibition [25]: Tde; Activity [26]: Active; Activity [28]: 72.61%; inhibition at 40 µM [37]: 90%; Activity [29]: 1.3%; Activity [30]: Active; Activity [33]: Active; Activity [38]: Active
3 | C[C@H](CCC(=O)OCc1cc(O)cc(O)c1)[C@H]1CC[C@H]2[C@@H]3[C@H](O)C[C@@H]4C[C@H](O)CC[C@]4(C)[C@H]3CC[C@]12C |  |  | 116 | 40.9 |  | 64.5 |  | 156 | > 200 | 127 |  | 76.9 |  |  |  | 69.4 |  |  | 81.8 | 56.7 | IC50 [34]: 16.3 µM; inhibition at 10 µM [39]: 35.5%; inhibition at 25 µM [40]: 73.2%; Activity ([38]; DDE = dose-dependent effect): Dde
4 | COc1cc(COC(=O)CC[C@@H](C)[C@H]2CC[C@H]3[C@@H]4[C@H](O)C[C@@H]5C[C@H](O)CC[C@]5(C)[C@H]4C[C@H](O)[C@]23C)cc(OC)c1 | Active | Active | 126 | 27.9 | 89.77 | 23.7 | Active | 50.7 | > 500 | 34.6 | Active | 31.7 | Active | 70.35 | Active | 28 | Dde | 1.65 | 26.4 | 23.1 | inhibition at 20 µM [1]: 80%; IC50 [34]: 20.6 µM; inhibition at 20 µM [35]: < 40%; Activity [22]: 93.87%; viability at 30 µM [23]: 19.5%; Activity [36]: Active; inhibition at 20 µM [24]: 80%; inhibition [25]: Tde; Activity [26]: Active; Activity [28]: 76.88%; inhibition at 40 µM [37]: 90%; Activity [29]: 2.01%; Activity [30]: Active; Activity [33]: Active; Activity [38]: Active
